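The compound was tested at five concentrations on cells cultured in 96-well plates, with a 48-hour exposure period. Here, GI50 denotes the concentration required for 50% inhibition of growth.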 Calls of active or inactive are those of the source. Rule as the data show it: active = GI50 up to about 1.1 µM and inactive = higher.
Assays:
Assay in all cases: NCI-60 cell line screen, 48 h
HOP-92 = system: HOP-92
RPMI-8226 = system: RPMI-8226
SK-MEL-5 = system: SK-MEL-5
OVCAR-8 = system: OVCAR-8
HCC 2998 = system: HCC 2998
UACC-257 = system: UACC-257
SK-MEL-28 = system: SK-MEL-28
UACC-62 = system: UACC-62
DU-145 = system: DU-145
CAKI-1 = system: CAKI-1
OVCAR-3 = system: OVCAR-3
OVCAR-5 = system: OVCAR-5
UO-31 = system: UO-31
HT-29 = system: HT-29
SR = system: SR
OVCAR-4 = system: OVCAR-4
SF-539 = system: SF-539
U-251 = system: U-251
BT-549 = system: BT-549
MDA-MB-231 = system: MDA-MB-231

Measured: GI50

Clc1cccc(N2CCN(CCN3CCc4c([nH]c5ccccc45)C3c3cccnc3)CC2)c1 (stereo not drawn)
inactive: HOP-92 > 52.5 µM | RPMI-8226 30.6 µM | SK-MEL-5 97.7 µM | OVCAR-8 > 61.9 µM | HCC 2998 22.5 µM | UACC-257 > 77.4 µM | SK-MEL-28 > 100 µM | UACC-62 > 70 µM | DU-145 > 31.6 µM | CAKI-1 > 100 µM | OVCAR-3 58.5 µM | OVCAR-5 > 57.3 µM | UO-31 > 100 µM | HT-29 37 µM | SR 25.7 µM | OVCAR-4 31.4 µM | SF-539 33.5 µM | U-251 64.4 µM | BT-549 > 100 µM

CCCCCCCCCCCCOCC(COP(=O)(O)OCCN=[N+]=[N-])OC(=O)CCCCCCCCCCC (stereo not drawn)
inactive: MDA-MB-231 > 100 µM | HOP-92 > 100 µM | RPMI-8226 > 100 µM | SK-MEL-5 > 100 µM | OVCAR-8 > 100 µM | HCC 2998 > 100 µM | SK-MEL-28 > 100 µM | UACC-62 > 100 µM | DU-145 > 100 µM | CAKI-1 > 100 µM | OVCAR-3 > 100 µM | OVCAR-5 > 100 µM | UO-31 > 100 µM | HT-29 > 100 µM | OVCAR-4 52.2 µM | SF-539 > 100 µM | U-251 > 100 µM

O=C(CC1C(=O)Nc2ccccc2S1(=O)=O)Nc1ccc(Cl)cc1 (stereo not drawn)
inactive: HOP-92 16.9 µM | RPMI-8226 4.84 µM | SK-MEL-5 21.2 µM | OVCAR-8 26.4 µM | HCC 2998 18.4 µM | UACC-257 14.9 µM | SK-MEL-28 20 µM | UACC-62 43 µM | CAKI-1 16.5 µM | OVCAR-3 15.2 µM | OVCAR-5 78.9 µM | UO-31 17.1 µM | HT-29 29.9 µM | SR 4.7 µM | OVCAR-4 22.1 µM | SF-539 13.8 µM | U-251 16 µM

CCOC(=O)C1([Se]c2ccccc2)CCCC1=O (stereo not drawn)
inactive: HOP-92 25.5 µM | RPMI-8226 23.3 µM | SK-MEL-5 20.1 µM | OVCAR-8 16.8 µM | HCC 2998 25.9 µM | UACC-257 43.7 µM | SK-MEL-28 18.9 µM | UACC-62 14.7 µM | CAKI-1 44.5 µM | OVCAR-3 26.6 µM | OVCAR-5 40.8 µM | UO-31 23.6 µM | HT-29 37.8 µM | SR 14 µM | OVCAR-4 18.8 µM | SF-539 19.6 µM | U-251 9.95 µM

Cc1ccc(S(=O)(=O)OCC/C(=C\[Si](C)(C)C)c2ccccc2)cc1
inactive: HOP-92 > 100 µM | RPMI-8226 > 100 µM | SK-MEL-5 > 100 µM | OVCAR-8 > 100 µM | HCC 2998 > 100 µM | UACC-257 > 100 µM | SK-MEL-28 > 100 µM | UACC-62 > 100 µM | CAKI-1 > 100 µM | OVCAR-3 > 100 µM | OVCAR-5 > 100 µM | UO-31 > 100 µM | HT-29 > 100 µM | SR 24 µM | OVCAR-4 > 100 µM | SF-539 > 100 µM | U-251 > 100 µM

CCNc1ncnc2c1nnn2CC
inactive: MDA-MB-231 > 100 µM | HOP-92 72.1 µM | RPMI-8226 > 100 µM | SK-MEL-5 > 100 µM | OVCAR-8 97.5 µM | HCC 2998 > 100 µM | UACC-257 > 100 µM | SK-MEL-28 > 100 µM | UACC-62 > 100 µM | DU-145 > 100 µM | CAKI-1 > 100 µM | OVCAR-3 > 100 µM | UO-31 > 100 µM | HT-29 > 100 µM | OVCAR-4 > 100 µM | SF-539 > 100 µM | U-251 > 100 µM

CN1CCc2cc3c4cc2C1Cc1ccc(cc1)Oc1cc(ccc1O)CC1c2c(cc(O)c(c2O4)O3)CCN1C (stereo not drawn)
inactive: HOP-92 2.52 µM | RPMI-8226 1.64 µM | SK-MEL-5 2.39 µM | OVCAR-8 2.86 µM | HCC 2998 2.06 µM | UACC-257 1.95 µM | SK-MEL-28 1.8 µM | UACC-62 2.02 µM | CAKI-1 10.5 µM | OVCAR-3 3.94 µM | OVCAR-5 8.2 µM | UO-31 3.44 µM | HT-29 2.8 µM | SR 3.92 µM | OVCAR-4 2.22 µM | SF-539 1.67 µM | U-251 1.69 µM

COC(=O)C1CCCC2(C1)OCCO2 (stereo not drawn)
inactive: HOP-92 > 100 µM | RPMI-8226 > 100 µM | SK-MEL-5 > 100 µM | OVCAR-8 > 100 µM | HCC 2998 > 100 µM | UACC-257 > 100 µM | SK-MEL-28 > 100 µM | UACC-62 > 100 µM | CAKI-1 > 100 µM | OVCAR-3 > 100 µM | OVCAR-5 > 100 µM | UO-31 > 100 µM | HT-29 > 100 µM | SR > 100 µM | OVCAR-4 > 100 µM | SF-539 > 100 µM | U-251 > 100 µM

O=C(O)[C@@H]1CCS(=O)(=O)N1
inactive: MDA-MB-231 > 100 µM | SK-MEL-5 > 100 µM | OVCAR-8 > 100 µM | HCC 2998 > 100 µM | UACC-257 > 100 µM | SK-MEL-28 > 100 µM | UACC-62 > 100 µM | DU-145 > 100 µM | CAKI-1 > 100 µM | OVCAR-3 > 100 µM | OVCAR-5 > 100 µM | HT-29 > 100 µM | SR > 100 µM | OVCAR-4 > 100 µM | SF-539 > 100 µM

C1=CC2=CC=CC3c4nc5ccc6ccccc6c5nc4C(=C1)C23 (stereo not drawn)
inactive: MDA-MB-231 > 100 µM | HOP-92 > 100 µM | RPMI-8226 > 100 µM | SK-MEL-5 > 100 µM | OVCAR-8 > 100 µM | HCC 2998 > 100 µM | UACC-257 > 100 µM | SK-MEL-28 > 100 µM | UACC-62 > 100 µM | DU-145 > 100 µM | CAKI-1 > 100 µM | OVCAR-3 > 100 µM | OVCAR-5 > 100 µM | UO-31 > 100 µM | HT-29 > 100 µM | SR > 100 µM | OVCAR-4 > 100 µM | SF-539 > 100 µM | U-251 > 100 µM

COc1cc(O)c2c(c1)OCC1(Cc3cc(OC)c(OC)cc31)C2=O (stereo not drawn)
inactive: MDA-MB-231 83 µM | HOP-92 23.3 µM | RPMI-8226 37.9 µM | SK-MEL-5 2.37 µM | OVCAR-8 > 100 µM | UACC-257 43.1 µM | SK-MEL-28 > 100 µM | UACC-62 63.2 µM | DU-145 > 100 µM | CAKI-1 52 µM | OVCAR-3 34 µM | OVCAR-5 > 100 µM | UO-31 > 100 µM | HT-29 > 100 µM | SR 68.7 µM | OVCAR-4 40 µM | SF-539 > 100 µM | U-251 > 100 µM

O=C(c1ccccc1)N1C(=O)N(c2ccccc2)C(=N/c2ccccc2)/C1=N\c1ccccc1
inactive: MDA-MB-231 > 100 µM | HOP-92 64.1 µM | RPMI-8226 > 100 µM | SK-MEL-5 > 100 µM | OVCAR-8 > 100 µM | HCC 2998 28.8 µM | UACC-257 37.8 µM | SK-MEL-28 > 100 µM | UACC-62 4.18 µM | DU-145 > 100 µM | CAKI-1 48.1 µM | OVCAR-5 99.1 µM | UO-31 > 100 µM | HT-29 33.7 µM | SR 17.8 µM | OVCAR-4 23.4 µM | SF-539 > 100 µM | U-251 > 100 µM

CC(=O)c1ccc(/N=N/c2ccc3nonc3c2N)cc1
inactive: MDA-MB-231 > 100 µM | HOP-92 > 100 µM | RPMI-8226 > 100 µM | SK-MEL-5 > 100 µM | OVCAR-8 > 100 µM | HCC 2998 > 100 µM | UACC-257 > 100 µM | SK-MEL-28 > 100 µM | UACC-62 > 100 µM | DU-145 > 100 µM | CAKI-1 > 100 µM | OVCAR-3 88.3 µM | OVCAR-5 > 100 µM | UO-31 > 100 µM | HT-29 > 100 µM | SR > 100 µM | OVCAR-4 > 100 µM | SF-539 > 100 µM | U-251 > 100 µM

O=C1C(=Cc2c(O)cc(O)cc2O)C(=O)c2ccccc21
inactive: HOP-92 > 38.5 µM | RPMI-8226 29 µM | SK-MEL-5 > 100 µM | OVCAR-8 > 41.7 µM | HCC 2998 > 41.9 µM | UACC-257 > 42.5 µM | SK-MEL-28 > 45.8 µM | UACC-62 > 40.5 µM | DU-145 19.1 µM | CAKI-1 > 45.9 µM | OVCAR-3 > 40.6 µM | OVCAR-5 > 43 µM | UO-31 > 100 µM | HT-29 > 42.1 µM | SR 13.6 µM | OVCAR-4 > 48.2 µM | SF-539 > 42.7 µM | U-251 > 42.9 µM

O=C(O)C12C3CCC(O3)C1(C(=O)O)C1CCC2O1 (stereo not drawn)
inactive: RPMI-8226 > 100 µM | SK-MEL-5 > 100 µM | OVCAR-8 > 100 µM | HCC 2998 > 100 µM | UACC-257 > 100 µM | SK-MEL-28 > 100 µM | UACC-62 > 100 µM | DU-145 > 100 µM | CAKI-1 > 100 µM | OVCAR-3 > 100 µM | OVCAR-5 > 100 µM | UO-31 > 100 µM | HT-29 > 100 µM | SF-539 > 100 µM | U-251 > 100 µM | BT-549 > 100 µM

Cc1ccccc1/C=C/C(=O)c1ccccc1
inactive: HOP-92 20.5 µM | RPMI-8226 24.9 µM | SK-MEL-5 > 10 µM | OVCAR-8 25.2 µM | HCC 2998 18.4 µM | UACC-257 22.5 µM | SK-MEL-28 18.7 µM | UACC-62 19.9 µM | CAKI-1 19.4 µM | OVCAR-3 17.3 µM | OVCAR-5 16.3 µM | UO-31 21.7 µM | HT-29 20.1 µM | SR 29 µM | OVCAR-4 13.3 µM | SF-539 15.1 µM | U-251 16.8 µM

Source: ChEMBL document CHEMBL1201862, “PubChem BioAssay data set” (2004)
